The results in this text go back to patent publication US3957779A, “Benzo-1,2,4-triazines” (Bayer Aktiengesellschaft, priority 1972, dated 1976).

Converted amounts (≈) assume the structure as drawn.

For one assay, the system named is Mycoplasma gallisepticum. The assay is described as follows: MIC, series dilution test, PPLO-medium (Table 1). Particulars: Mycoplasmoides gallisepticum, 37°C, 18, 24 and 48 hours, read-out: Minimum inhibitory concentration (MIC). It is filed as cell-based. On the procedure:
(§1) The mycoplasmae were tested in the series dilution test (PPLO-medium) at 37°C, with observations after 18, 24 and 48 hours.

The test system of another assay is Mycoplasma bovirhinis. The assay can be described thus: MIC, series dilution test, PPLO-medium (Table 1). The note with it: 37°C, 18, 24 and 48 hours, read-out: Minimum inhibitory concentration (MIC). It is filed as cell-based. How it is done: as §1
The subject of a further assay is Mycoplasma granularum. The assay can be described thus: MIC, series dilution test, PPLO-medium (Table 1). Particulars: Acholeplasma granularum, 37°C, 18, 24 and 48 hours, read-out: Minimum inhibitory concentration (MIC). It is filed as cell-based. On the procedure:
as §1

The subject of assay [1] is Mycobacterium tuberculosis. The assay can be described thus: MIC, series dilution test, Jenssen egg medium. The note with it: 37°C, read-out: minimum inhibitory concentration. Type of assay: cell-based. On the procedure:
The compounds of Examples 12 and 13 show minimum inhibitory concentrations of 32 γ/ml of nutrient medium in the series dilution test, Jenssen egg medium, 37°C, against Mycobacterium tuberculosis.

A further assay concerns Klebsiella 63. The assay is described as follows: MIC, plate test (Table 1). Type of assay: cell-based. The note with it: 37°C, 24 hours, read-out: Minimum inhibitory concentration (MIC). On the procedure:
(§2) The minimum inhibitory concentration (MIC) was determined in the plate test on a complete nutrient base of the following composition: 10 g of proteose-peptone, 10 g of veal infusion, 2 g of dextrose, 3 g of sodium chloride, 2 g of disodium phosphate, 1 g of sodium acetate, 0.01 g of adenine sulphate, 0.01 g of guanine hydrochloride, 0.01 g of uracil, 0.01 g. of xantin, 12 g of agar-agar and 1 liter of water.
(§3) The incubation temperature was 37°C and the incubation time was 24 hours.

The test system of a further assay is Streptococcus pyogenes. The assay can be described thus: MIC, plate test (Table 1). It is filed as cell-based. Particulars: with serum, 37°C, 24 hours, read-out: Minimum inhibitory concentration (MIC). On the procedure:
as §2, §3

Assay [2] concerns Pseudomonas aeruginosa w. The assay can be described thus: MIC, plate test (Table 1). Type of assay: cell-based. Particulars: 37°C, 24 hours, read-out: Minimum inhibitory concentration (MIC). On the procedure:
as §2, §3

Assay [3] relates to Pseudomonas aeruginosa B. The assay can be described thus: MIC, plate test (Table 1). Type of assay: cell-based. Particulars: 37°C, 24 hours, read-out: Minimum inhibitory concentration (MIC). How it is done: as §2, §3
For assay [4], the system named is Staphylococcus aureus 133. The assay is described as follows: MIC, plate test (Table 1). It is filed as cell-based. Particulars: 37°C, 24 hours, read-out: Minimum inhibitory concentration (MIC). How it is done: as §2, §3
Assay [5] relates to Escherichia coli C165. The assay can be described thus: MIC, plate test (Table 1). It is filed as cell-based. Particulars: 37°C, 24 hours, read-out: Minimum inhibitory concentration (MIC). How it is done:
as §2, §3

Assay [6] concerns Klebsiella 8085. The assay can be described thus: MIC, plate test (Table 1). It is filed as cell-based. Particulars: 37°C, 24 hours, read-out: Minimum inhibitory concentration (MIC). On the procedure: as §2, §3
A further assay concerns Escherichia coli A261. The assay can be described thus: MIC, plate test (Table 1). Type of assay: cell-based. Particulars: 37°C, 24 hours, read-out: Minimum inhibitory concentration (MIC). How it is done: as §2, §3
Assay [7] deals with Salmonella species. The assay can be described thus: MIC, plate test (Table 1). Type of assay: cell-based. The note with it: 37°C, 24 hours, read-out: Minimum inhibitory concentration (MIC). How it is done: as §2, §3
For assay [8], the system named is Proteus vulgaris 1017. The assay can be described thus: MIC, plate test (Table 1). Type of assay: cell-based. Particulars: 37°C, 24 hours, read-out: Minimum inhibitory concentration (MIC). On the procedure: as §2, §3
For assay [9], the system named is Klebsiella 8085. The assay can be described thus: In vivo ED50, intraperitoneal infection of white mice (Table 2). The note with it: sc; Klebsiella 8085 i.p. infection; s.c. 15 minutes before infection; 50% survival at 24 hours.
In assay [10] the test system is Escherichia coli C165. The assay is described as above. Particulars: sc; Escherichia coli C165 i.p. infection; s.c. 15 minutes before infection; 50% survival at 24 hours.
The next assay deals with Enterococcus species. The assay is described as follows: Turbidity test in Mueller-Hinton nutrient solution. It is filed as cell-based. The note with it: 100 γ/ml, 24 hours, 37°C.
A further assay deals with Streptococcus pyogenes W. The assay can be described thus: Turbidity test in Mueller-Hinton nutrient solution. Type of assay: cell-based. Particulars: 100 γ/ml, 24 hours, 37°C.
In the next assay the test system is Escherichia coli 14. The assay can be described thus: Turbidity test in Mueller-Hinton nutrient solution. Particulars: 100 γ/ml, 24 hours, 37°C. It is filed as cell-based.
The test system of assay [11] is Neisseria catarrhalis species. The assay can be described thus: Turbidity test in Mueller-Hinton nutrient solution. Type of assay: cell-based. The note with it: 100 γ/ml, 24 hours, 37°C.
Assay [12] has as its system Proteus indole-positive, species. The assay is described as follows: Turbidity test in Mueller-Hinton nutrient solution. It is filed as cell-based. Particulars: 100 γ/ml, 24 hours, 37°C.
Assay [13] concerns Diplococcus pneumoniae species. The assay is described as follows: Turbidity test in Mueller-Hinton nutrient solution. Type of assay: cell-based. Particulars: 100 γ/ml, 24 hours, 37°C.
For another assay, the system named is Klebsiella K 10. The assay is described as follows: Turbidity test in Mueller-Hinton nutrient solution. It is filed as cell-based. The note with it: 100 γ/ml, 24 hours, 37°C.
The test system of assay [14] is Proteus indole-negative, species. The assay can be described thus: Turbidity test in Mueller-Hinton nutrient solution. It is filed as cell-based. Particulars: 100 γ/ml, 24 hours, 37°C.
A further assay deals with Shigella species. The assay is described as follows: Turbidity test in Mueller-Hinton nutrient solution. It is filed as cell-based. Particulars: 100 γ/ml, 24 hours, 37°C. On the procedure: (§4) 100 γ/ml of the compounds according to the invention are dissolved in Mueller-Hinton nutrient solution, with addition of 0.1% of glucose. The nutrient solution contains […] microbes per ml. The mixture is incubated in glass test tubes for 24 hours at 37°C and after this time the degree of turbidity is determined.

Assay [15] has as its system Salmonella species. The assay can be described thus: Turbidity test in Mueller-Hinton nutrient solution. It is filed as cell-based. Particulars: 100 γ/ml, 24 hours, 37°C. How it is done: as §4
Another assay concerns Clostridium tetani. Type of assay: cell-based. The note with it: 100 γ/ml, 24 hours, 37°C.
The next assay concerns Escherichia coli C 165. The assay can be described thus: Turbidity test in Mueller-Hinton nutrient solution. It is filed as cell-based. Particulars: 100 γ/ml, 24 hours, 37°C.
Assay [16] deals with Corynebacterium diphtheriae gravis. The assay is described as follows: Turbidity test in Mueller-Hinton nutrient solution. Type of assay: cell-based. The note with it: 100 γ/ml, 24 hours, 37°C.
Assay [17] relates to Staphylococcus aureus 133. The assay is described as follows: Turbidity test in Mueller-Hinton nutrient solution. It is filed as cell-based. Particulars: 100 γ/ml, 24 hours, 37°C.
A further assay deals with Enterobacter species. The assay can be described thus: Turbidity test in Mueller-Hinton nutrient solution. It is filed as cell-based. The note with it: 100 γ/ml, 24 hours, 37°C.
The test system of assay [18] is Pseudomonas aeruginosa w. The assay can be described thus: Turbidity test in Mueller-Hinton nutrient solution. Type of assay: cell-based. Particulars: 100 γ/ml, 24 hours, 37°C.
The subject of assay [19] is Aeromonas hydrophila species. The assay is described as follows: Turbidity test in Mueller-Hinton nutrient solution. Type of assay: cell-based. Particulars: 100 γ/ml, 24 hours, 37°C.
A further assay relates to Lactobacillus species. The assay can be described thus: Turbidity test in Mueller-Hinton nutrient solution. It is filed as cell-based. The note with it: 100 γ/ml, 24 hours, 37°C.
The next assay has as its system Borrelia species. The assay can be described thus: Turbidity test in Mueller-Hinton nutrient solution. Type of assay: cell-based. Particulars: 100 γ/ml, 24 hours, 37°C.
Assay [20] deals with Bordetella bronchiseptica. The assay is described as follows: Turbidity test in Mueller-Hinton nutrient solution. Type of assay: cell-based. The note with it: 100 γ/ml, 24 hours, 37°C.
Assay [21] deals with Haemophilus influenzae 281. The assay can be described thus: Turbidity test in Mueller-Hinton nutrient solution. Type of assay: cell-based. Particulars: 100 γ/ml, 24 hours, 37°C.
For a further assay, the system named is Escherichia coli A 261. The assay can be described thus: Turbidity test in Mueller-Hinton nutrient solution. It is filed as cell-based. Particulars: 100 γ/ml, 24 hours, 37°C.
Assay [22] concerns Proteus vulgaris 1017. The assay is described as follows: Turbidity test in Mueller-Hinton nutrient solution. It is filed as cell-based. The note with it: 100 γ/ml, 24 hours, 37°C.
Assay [23] relates to Pasteurella pseudotuberculosis. Type of assay: cell-based. Particulars: 100 γ/ml, 24 hours, 37°C.
The test system of a further assay is Bacteroides species. The assay can be described thus: Turbidity test in Mueller-Hinton nutrient solution. Type of assay: cell-based. Particulars: 100 γ/ml, 24 hours, 37°C.
Assay [24] concerns Corynebacterium pyogenes M. The assay is described as follows: Turbidity test in Mueller-Hinton nutrient solution. Type of assay: cell-based. Particulars: 100 γ/ml, 24 hours, 37°C.
The next assay concerns Brucella species. It is filed as cell-based. The note with it: 100 γ/ml, 24 hours, 37°C.
For assay [25], the system named is Pseudomonas aeruginosa B. The assay is described as follows: Turbidity test in Mueller-Hinton nutrient solution. It is filed as cell-based. The note with it: 100 γ/ml, 24 hours, 37°C.
Another assay deals with Klebsiella K 63. The assay is described as follows: Turbidity test in Mueller-Hinton nutrient solution. Type of assay: cell-based. Particulars: 100 γ/ml, 24 hours, 37°C.
For another assay, the system named is Serratia species. The assay can be described thus: Turbidity test in Mueller-Hinton nutrient solution. Type of assay: cell-based. Particulars: 100 γ/ml, 24 hours, 37°C.
The next assay has as its system Clostridium botulinium. Type of assay: cell-based.

By ED50 is commonly meant the dose that gives a 50% effect, or the effect in half of the subjects. Low values mean greater potency, high ones weaker potency. Consider `CNc1n[n+]([O-])c2ccccc2[n+]1[O-]` [Example 1, 3-(N-methylamino)-benzo-1,2,4-triazine-1,4-di-N-oxide], for which the MIC with Mycoplasma gallisepticum worked out at 1 µg/mL (≈ 5.2 µM); in the assay on Mycoplasma bovirhinis, 1 µg/mL (≈ 5.2 µM); with Mycoplasma granularum, 1 µg/mL (≈ 5.2 µM); in [1], 32 µg/mL (≈ 167 µM); in the assay with Klebsiella 63, 128 µg/mL (≈ 666 µM); in the assay on Streptococcus pyogenes, 128 µg/mL (≈ 666 µM). The MIC in the assay with Pseudomonas aeruginosa w [2] came to 128 µg/mL (≈ 666 µM); with Pseudomonas aeruginosa B [3] it was 8 µg/mL (≈ 41.6 µM); in [4], 8 µg/mL (≈ 41.6 µM); in the assay with Escherichia coli C165 [5], 8 µg/mL (≈ 41.6 µM); with Klebsiella 8085 [6], 8 µg/mL (≈ 41.6 µM); with Escherichia coli A261, 8 µg/mL (≈ 41.6 µM). Besides, the results for the MIC in the assay on Salmonella species [7] and in the assay with Proteus vulgaris 1017 [8] were 8 to 16 µg/mL (≈ 41.6 to 83.3 µM) and 128 µg/mL (≈ 666 µM), respectively. For the same compound, the ED50 in the assay with Klebsiella 8085 [9] and in the assay with Escherichia coli C165 [10] was 25 mg/kg in each case.

As for `O=C(CCl)Nc1n[n+]([O-])c2ccccc2[n+]1[O-]` [Example 9, 3-(N-chloroacetylamino)-benzo-1,2,4-triazine-1,4-di-N-oxide], it took a dose of 25 mg/kg to reach the 50% effect level in the assay on Klebsiella 8085 [9] (ED50).

For `NC(=O)Nc1n[n+]([O-])c2ccccc2[n+]1[O-]` [Example 13, 1,4-dioxo-benzo-1,2,4-triazin-3-yl-urea], the turbidity after incubation result (with Enterococcus species; in the assay on Streptococcus pyogenes W; in the assay on Escherichia coli 14; in assay [11]; in assay [12]; in assay [13]) was “remained free of turbidity” throughout. Also, the turbidity after incubation result (with Klebsiella K 10; in [14]; in the assay with Shigella species; in the assay on Salmonella species [15]; in the assay with Clostridium tetani; in the assay with Escherichia coli C 165) was “remained free of turbidity” in each case. Besides, the turbidity after incubation entry (in assay [16]; in assay [17]; with Enterobacter species; in the assay with Pseudomonas aeruginosa w [18]; in assay [19]; with Lactobacillus species) was “remained free of turbidity” each time. Further, the turbidity after incubation result (in the assay with Borrelia species; in [20]; in [21]; in the assay on Escherichia coli A 261; in the assay with Proteus vulgaris 1017 [22]; in assay [23]) was “remained free of turbidity” throughout. The turbidity after incubation result (in the assay with Bacteroides species; in [24]; with Brucella species; in the assay on Pseudomonas aeruginosa B [25]; in the assay with Klebsiella K 63; in the assay with Serratia species) was “remained free of turbidity” in each case. Moreover, the turbidity after incubation result with Clostridium botulinium was “remained free of turbidity”. Also, in [1], the MIC was 32 µg/mL (≈ 145 µM).
